The subject of one test is BCWM.1. Briefly: CellTiter-Glo Luminescent cell viability assay, BCWM.1. The following applies: BCWM1, BCWM.1 cell line, 72 hours at 37° C., read-out: ED50 (the source's name). It counts as cell-based. The procedure: (§1) The CellTiter-Glo® Luminescent cell viability assay (Promega, Madison WI) was used to assess the dose-response of inhibitors alone or in combination. Cells were seeded into 384 well plates with the EL406 Combination Washer Dispenser (BioTek Instruments, Inc.) and inhibitors were injected into culture media with the JANUS Automated Workstation (PerkinElmer Inc., Waltham MA). Cells were incubated with inhibitors for 72 hours at 37° C. Luminescent measurements to assess cell viability were performed using the 2104 Envision® Multilabel Reader (PerkinElmer Inc.). Drug interactions were assessed by CalcuSyn 2.0 software (Biosoft, Cambridge UK) based on Chou TC.

A further test has as its system RPMI-8226. Briefly: CellTiter-Glo Luminescent cell viability assay, RPMI-8226. It counts as cell-based. The following applies: Homo sapiens, RPMI-8226 cell line, 72 hours at 37° C., read-out: ED50 (the source's name). How it is done:
as §1

A further test relates to HBL-1. As to the kind of experiment: CellTiter-Glo Luminescent cell viability assay, HBL-1. It counts as cell-based. The following applies: HBL1, HBL-1 cell line, 72 hours at 37° C., read-out: ED50 (the source's name). The procedure:
as §1

Another test has as its system MWCL-1. As to the kind of experiment: CellTiter-Glo Luminescent cell viability assay, MWCL-1. Type of test: cell-based. The following applies: MWCL-1 cell line, 72 hours at 37° C., read-out: ED50 (the source's name). How it is done: as §1
The test system of the next test is SU-DHL-6. As to the kind of experiment: CellTiter-Glo Luminescent cell viability assay, SU-DHL-6. It counts as cell-based. The following applies: Homo sapiens, SU-DHL-6 cell line, 72 hours at 37° C., read-out: ED50 (the source's name). How it is done:
as §1

The next test concerns JeKo-1. Briefly: CellTiter-Glo Luminescent cell viability assay, JeKo-1. Type of test: cell-based. The following applies: Homo sapiens, JeKo-1 cell line, 72 hours at 37° C., read-out: ED50 (the source's name). How it is done: as §1
The test system of a further test is OCI-Ly7. Briefly: CellTiter-Glo Luminescent cell viability assay, OCI-Ly7. It counts as cell-based. The following applies: Homo sapiens, OCI-Ly7 cell line, 72 hours at 37° C., read-out: ED50 (the source's name). The procedure:
as §1

The subject of the next test is TMD8. As to the kind of experiment: CellTiter-Glo Luminescent cell viability assay, TMD8. The following applies: Homo sapiens, TMD8 cell line, 72 hours at 37° C., read-out: ED50 (the source's name). Type of test: cell-based. The procedure:
as §1

The subject of a further test is OCI-Ly19. Briefly: CellTiter-Glo Luminescent cell viability assay, OCI-Ly19. Type of test: cell-based. The following applies: Homo sapiens, OCI-Ly19 cell line, 72 hours at 37° C., read-out: ED50 (the source's name). The procedure:
as §1

In another test the test system is Ramos. As to the kind of experiment: CellTiter-Glo Luminescent cell viability assay, Ramos. It counts as cell-based. The following applies: Homo sapiens, Ramos cell line, 72 hours at 37° C., read-out: ED50 (the source's name). How it is done: as §1
The target of another test is T1, IRAK1 (Homo sapiens, UniProt P51617).
T1 construct: purchased ThermoFisher
T1 sequence (P51617 whole entry): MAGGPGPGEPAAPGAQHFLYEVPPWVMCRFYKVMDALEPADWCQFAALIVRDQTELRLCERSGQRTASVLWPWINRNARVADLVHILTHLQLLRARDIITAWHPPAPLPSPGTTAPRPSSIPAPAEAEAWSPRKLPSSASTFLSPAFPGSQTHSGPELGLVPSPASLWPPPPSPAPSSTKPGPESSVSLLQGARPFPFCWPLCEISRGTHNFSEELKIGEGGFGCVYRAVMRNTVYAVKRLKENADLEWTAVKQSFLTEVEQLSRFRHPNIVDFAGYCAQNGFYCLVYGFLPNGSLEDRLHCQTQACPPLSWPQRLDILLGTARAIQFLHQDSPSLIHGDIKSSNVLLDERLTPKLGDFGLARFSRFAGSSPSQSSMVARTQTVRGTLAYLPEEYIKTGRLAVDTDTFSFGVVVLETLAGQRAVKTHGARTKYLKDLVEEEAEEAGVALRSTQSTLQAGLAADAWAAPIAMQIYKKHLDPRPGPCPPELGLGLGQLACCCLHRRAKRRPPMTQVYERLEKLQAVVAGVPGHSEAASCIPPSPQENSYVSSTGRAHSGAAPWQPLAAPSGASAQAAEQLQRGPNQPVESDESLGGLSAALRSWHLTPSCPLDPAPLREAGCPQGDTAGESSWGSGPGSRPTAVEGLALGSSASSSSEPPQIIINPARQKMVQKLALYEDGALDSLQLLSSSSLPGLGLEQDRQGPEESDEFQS
As to the kind of experiment: IRAK1 enzymatic assay (Adapta Universal Kinase Assay, ThermoFisher). Type of test: biochemical. The following applies: 60 minutes at room temperature. The procedure:
To measure the IC50 values of the compounds herein against IRAK1, the Adapta Universal Kinase Assay (ThermoFisher) was used. Briefly, 100 nL of different concentrations of the compounds in 100% DMSO were added to each well of a 384-well plate (Corning Cat. #4512). 2.4 μL of 30 mM HEPES, 2.5 μL of 4×ATP solution (in water), and 5 μL of 2×IRAK1/Histone H3 (1-20) peptide mixture (prepared in 50 mM HEPES pH 7.5, 0.01% BRIJ-35, 10 mM MgCl2, 1 mM EGTA) were added to each well. The plate was shaken for 30 seconds and centrifuged for 1 minute at 1000×g. The plate was then incubated at room temperature for 60 minutes. 5 μL of Detection Mix was added to each well. The plate was shaken for 30 seconds and centrifuged for 1 minute at 1000×g. The plate was then incubated at room temperature for 60 minutes. The plate was subsequently read on a fluorescence plate reader, and the emissions ratio was calculated to determine the ratio of ATP to ADP. Emissions Ratio=AF647 Emission (665 nm)/Europium Emission (615 nm).

A further test relates to multiple cell lines. Briefly: Cellular IRAK4 inhibitory activity screened across multiple cell lines. Type of test: cell-based. How it is done: as §1, with “TC. Cellular IRAK4 inhibitory activities of compound 015 and two commercial IRAK4 inhibitors, CA-4948 and PF06650833, were screened across multiple cell lines.” for “TC.”
A further test addresses T2, IRAK4 (Homo sapiens, UniProt Q9NWZ3).
T2 construct: purchased ThermoFisher
T2 sequence (Q9NWZ3 1-460): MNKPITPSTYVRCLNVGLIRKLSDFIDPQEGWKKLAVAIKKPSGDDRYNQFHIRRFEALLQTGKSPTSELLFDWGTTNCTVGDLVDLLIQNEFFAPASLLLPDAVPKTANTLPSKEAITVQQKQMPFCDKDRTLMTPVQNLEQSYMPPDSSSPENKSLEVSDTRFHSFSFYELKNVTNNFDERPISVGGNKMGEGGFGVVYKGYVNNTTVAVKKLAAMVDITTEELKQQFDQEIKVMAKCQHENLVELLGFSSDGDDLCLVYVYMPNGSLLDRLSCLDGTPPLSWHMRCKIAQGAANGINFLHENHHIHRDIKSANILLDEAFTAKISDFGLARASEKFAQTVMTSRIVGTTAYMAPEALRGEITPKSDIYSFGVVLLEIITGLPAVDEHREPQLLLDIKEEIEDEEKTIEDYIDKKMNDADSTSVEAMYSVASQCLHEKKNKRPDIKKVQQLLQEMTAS
As to the kind of experiment: IRAK4 enzymatic assay (Z'-LYTE, ThermoFisher). It counts as biochemical. The following applies: 60 minutes at room temperature. The procedure:
To measure the IC50 values of compounds herein against IRAK4, a Z′-LYTE assay (ThermoFisher) was used. Briefly, 2.5 μL of different concentrations of the compounds in 1% DMSO were added to 2.4 μL kinase buffer (50 mM HEPES pH 7.5, 0.01% BRIJ-35, 10 mM MgCl2, 1 mM EGTA) in each well of a 384-well plate (Corning Cat. #3676). 5 μL of 2×IRAK4/Ser/Thr 07 mixture (prepared in 50 mM HEPES pH 7.5, 0.01% BRIJ-35, 10 mM MnCl2, 2 mM DTT, and 0.02% NaN3) and 2.5 μL of 4×ATP solution (4×ATP, 50 mM HEPES, pH 7.5, 0.01% BRIJ-35, 10 mM MgCl2, 1 mM EGTA) were added to each well. The plate was shaken for 30 seconds, and then incubated at room temperature for 60 minutes. 5 μL of a 1:100000 dilution of Development Reagent A was added to each well. The plate was shaken for 30 seconds and incubated for 60 minutes at room temperature. The plate was subsequently read on a fluorescence plate reader, and the emissions ratio was calculated to determine the ratio of Ser/Thr 07 phosphorylated by the reaction. Emissions Ratio=Coumarin Emission (443 nm)/Flourescein Emission (520 nm).

As for `Cc1cc(-c2nc(C(=O)Nc3cc4oc(N5CCOCC5)nc4nc3N3CC[C@@H](O)C3)co2)ccn1` [CA-4948], the EC50 with BCWM.1 was found to be 1.99 µM; in the test with RPMI-8226, 14 µM; with HBL-1 it was 11.1 µM; in the test with MWCL-1, 11.9 µM; in the test on SU-DHL-6 it was 8.69 µM; in the test with JeKo-1, 6.57 µM. Further, the figures for the EC50 with OCI-Ly7, in the test on TMD8 and in the test with OCI-Ly19 were 13 µM, 9.37 µM and 2.2 µM, respectively.
For `CC[C@@H]1[C@H](F)C(=O)N[C@@H]1COc1nccc2cc(C(N)=O)c(OC)cc12` [PF06650833], the EC50 was determined as 11 µM with BCWM.1; 80.5 µM in the test with RPMI-8226; 14.8 µM in the test with HBL-1; 18.3 µM in the test on MWCL-1; 9.8 µM in the test on OCI-Ly7; 28.7 µM in the test on Ramos. Further, the EC50 in the test with TMD8 came out at 24.1 µM; in the test on OCI-Ly19, 5.87 µM.
As to `Cc1ccc(-n2nc(C3CCN(C(C)C)CC3)cc2NC(=O)c2cccc(-c3cnn(CC(N)=O)c3)n2)nc1` [Compound 015, 6-(1-(2-amino-2-oxoethyl)-1H-pyrazol-4-yl)-N-(3-(1-isopropylpiperidin-4-yl)-1-(5-methylpyridin-2-yl)-1H-pyrazol-5-yl)picolinamide], the IC50 against IRAK1 turned out to be 0.45 µM; at IRAK4, 0.009 µM. Further, the “Potency compared with CA-4948 and PF06650833” value with multiple cell lines is reported as “more potent in most cell lines”. The EC50 in the test with BCWM.1 was determined as 3.33 µM; in the test with RPMI-8226 it was 6.78 µM; with HBL-1, 2.2 µM; with MWCL-1 it was 6.92 µM; in the test on SU-DHL-6, 1.72 µM; in the test with JeKo-1 it was 6.26 µM. Also, the EC50 in the test on OCI-Ly7 amounted to 3.11 µM; in the test with Ramos it was 0.362 µM; with TMD8, 3.92 µM; in the test with OCI-Ly19, 1.22 µM.

(Values after US20240391899A1, “POTENT AND SELECTIVE INHIBITORS OF IRAK4” (Dana-Farber Cancer Institute, Inc., priority 2021, published 2024).)
